Laboratory results: patent US20260138958A1, “SUBSTITUTED N-PHENYLURACILS AND SALTS THEREOF, AND USE THEREOF AS HERBICIDAL ACTIVE SUBSTANCES” (Bayer Aktiengesellschaft, priority 2022, published 2026)

Legend:
Type in all cases: in vivo
[1] = tested on: Zea mays (ZEAMX); assay: Post-emergence crop plant compatibility, greenhouse pot test
How it was run: (§1)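 Crops grown in sandy loam in the greenhouse were sprayed post-emergence at the one-leaf stage, 2–3 weeks after sowing, with WP or EC formulations plus 0.5% additive at 600 l/ha water. Damage was rated visually after about 3 weeks against untreated controls (0% = like control, 100% = dead).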

[2] = tested on: Oryza sativa (ORYSA); assay: as above
How it was run: as §1

[3] = tested on: Triticum aestivum (TRZAS); assay: as above
How it was run: as §1

[4] = tested on: Alopecurus myosuroides (ALOMY); assay: Post-emergence herbicidal action, greenhouse pot test; details: for pest or weed control at 20 g/ha: Alopecurus myosuroides, 504 h, read-out: Post-emergence effect at 20 g/ha against ALOMY in %
How it was run: (§2)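 Post-em greenhouse pots, sandy loam; one-leaf stage (2–3 wk after sowing); WP/EC spray, aq. suspension/emulsion + 0.5% additive, 600 l/ha; optimum conditions ~3 wk; visual % activity vs untreated (100% = dead).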

[5] = tested on: Pharbitis purpurea (PHBPU); assay: as above; details: for pest or weed control at 5 g/ha / pest or weed control at 20 g/ha: Ipomoea purpurea, 504 h; for pest or weed control at 5 g/ha: read-out: Post-emergence effect at 5 g/ha against PHBPU in %; for pest or weed control at 20 g/ha: read-out: Post-emergence effect at 20 g/ha against PHBPU in %
How it was run: as §2

[6] = tested on: Amaranthus retroflexus (AMARE); assay: as above; details: for pest or weed control at 1.25 g/ha / pest or weed control at 5 g/ha / pest or weed control at 20 g/ha: Amaranthus retroflexus, 504 h; for pest or weed control at 1.25 g/ha: read-out: Post-emergence effect at 1.25 g/ha against AMARE in %; for pest or weed control at 5 g/ha: read-out: Post-emergence effect at 5 g/ha against AMARE in %; for pest or weed control at 20 g/ha: read-out: Post-emergence effect at 20 g/ha against AMARE in %
How it was run: as §2

[7] = tested on: Veronica persica (VERPE); assay: as above; details: for pest or weed control at 5 g/ha / pest or weed control at 20 g/ha: Veronica persica, 504 h; for pest or weed control at 5 g/ha: read-out: Post-emergence effect at 5 g/ha against VERPE in %; for pest or weed control at 20 g/ha: read-out: Post-emergence effect at 20 g/ha against VERPE in %
How it was run: as §2

[8] = tested on: Viola tricolor (VIOTR); assay: as above; details: for pest or weed control at 20 g/ha: Viola tricolor, 504 h, read-out: Post-emergence effect at 20 g/ha against VIOTR in %
How it was run: as §2

[9] = tested on: Tripleurospermum inodorum (MATIN); assay: as above; details: for pest or weed control at 20 g/ha: Tripleurospermum inodorum, 504 h, read-out: Post-emergence effect at 20 g/ha against MATIN in %
How it was run: as §2

[10] = tested on: Setaria viridis (SETVI); assay: as above; details: for pest or weed control at 5 g/ha / pest or weed control at 20 g/ha: Setaria viridis, 504 h; for pest or weed control at 5 g/ha: read-out: Post-emergence effect at 5 g/ha against SETVI in %; for pest or weed control at 20 g/ha: read-out: Post-emergence effect at 20 g/ha against SETVI in %
How it was run: as §2

[11] = tested on: Echinochloa crus-galli (ECHCG); assay: as above; details: for pest or weed control at 20 g/ha: Echinochloa crus-galli, 504 h, read-out: Post-emergence effect at 20 g/ha against ECHCG in %
How it was run: as §2

[12] = tested on: Polygonum convolvulus (POLCO); assay: as above; details: for pest or weed control at 5 g/ha / pest or weed control at 20 g/ha: Fallopia convolvulus, 504 h; for pest or weed control at 5 g/ha: read-out: Post-emergence effect at 5 g/ha against POLCO in %; for pest or weed control at 20 g/ha: read-out: Post-emergence effect at 20 g/ha against POLCO in %
How it was run: as §2

[13] = tested on: Abutilon theophrasti (ABUTH); assay: as above; details: for pest or weed control at 5 g/ha / pest or weed control at 20 g/ha: Abutilon theophrasti, 504 h; for pest or weed control at 5 g/ha: read-out: Post-emergence effect at 5 g/ha against ABUTH in %; for pest or weed control at 20 g/ha: read-out: Post-emergence effect at 20 g/ha against ABUTH in %
How it was run: as §2

[14] = tested on: Lolium rigidum (LOLRI); assay: as above
How it was run: as §2

[15] = tested on: Bassia scoparia (KCHSC); assay: as above
How it was run: as §2

[16] = tested on: Digitaria sanguinalis (DIGSA); assay: as above
How it was run: as §2

[17] = crop plant, post-emergence, 1.25 g/ha

Cn1c(C(F)(F)F)cc(=O)n(-c2cc(Oc3ccccc3OCC(=O)OCC3CC3)c(Cl)cc2F)c1=O [I.7-1]
0%: Post-emergence effect at 1.25 g/ha against ORYSA in % [2, 17] | Post-emergence effect at 1.25 g/ha against TRZAS in % [3, 17]
80%: Post-emergence effect at 1.25 g/ha against PHBPU in % ([5]; 1.25 g/ha) | Post-emergence effect at 1.25 g/ha against MATIN in % ([9]; 1.25 g/ha) | Post-emergence effect at 1.25 g/ha against POLCO in % [12] | Post-emergence effect at 20 g/ha against LOLRI in % [14]
20%: Post-emergence effect at 1.25 g/ha against ZEAMX in % [1, 17] | Post-emergence effect at 5 g/ha against ORYSA in % ([2]; crop plant, post-emergence, 5 g/ha)
100%: Post-emergence effect at 20 g/ha against ALOMY in % ([4]; 20 g/ha) | Post-emergence effect at 5 g/ha against PHBPU in % ([5]; 5 g/ha) | Post-emergence effect at 20 g/ha against PHBPU in % ([5]; 20 g/ha) | Post-emergence effect at 1.25 g/ha against AMARE in % ([6]; 1.25 g/ha) | Post-emergence effect at 5 g/ha against AMARE in % ([6]; 5 g/ha) | Post-emergence effect at 20 g/ha against AMARE in % ([6]; 20 g/ha) | Post-emergence effect at 1.25 g/ha against VERPE in % [7] | Post-emergence effect at 5 g/ha against VERPE in % ([7]; 5 g/ha) | Post-emergence effect at 20 g/ha against VERPE in % ([7]; 20 g/ha) | Post-emergence effect at 1.25 g/ha against VIOTR in % [8] | Post-emergence effect at 5 g/ha against VIOTR in % [8] | Post-emergence effect at 20 g/ha against VIOTR in % ([8]; 20 g/ha) | Post-emergence effect at 5 g/ha against MATIN in % [9] | Post-emergence effect at 20 g/ha against MATIN in % ([9]; 20 g/ha) | Post-emergence effect at 1.25 g/ha against SETVI in % [10] | Post-emergence effect at 5 g/ha against SETVI in % ([10]; 5 g/ha) | Post-emergence effect at 20 g/ha against SETVI in % ([10]; 20 g/ha) | Post-emergence effect at 1.25 g/ha against ECHCG in % [11] | Post-emergence effect at 5 g/ha against ECHCG in % [11] | Post-emergence effect at 20 g/ha against ECHCG in % ([11]; 20 g/ha) | Post-emergence effect at 5 g/ha against POLCO in % ([12]; 5 g/ha) | Post-emergence effect at 20 g/ha against POLCO in % ([12]; 20 g/ha) | Post-emergence effect at 5 g/ha against ABUTH in % ([13]; 5 g/ha) | Post-emergence effect at 20 g/ha against ABUTH in % ([13]; 20 g/ha)
90%: Post-emergence effect at 5 g/ha against ALOMY in % [4] | Post-emergence effect at 1.25 g/ha against ABUTH in % [13]

Cn1c(C(F)(F)F)cc(=O)n(-c2cc(Oc3ccccc3OCC(=O)OCC3CC34CC4)c(Cl)cc2F)c1=O (stereo not drawn) [I.7-18, Spiro[2.2]pentan-1-ylmethyl (2-{2-chloro-4-fluoro-5-[3-methyl-2,6-dioxo-4-(trifluoromethyl)-3,6-dihydropyrimidin-1(2H)-yl]phenoxy}phenoxy)acetate]
20%: Post-emergence effect at 1.25 g/ha against ZEAMX in % ([1]; Zea mays, in vivo)
10%: Post-emergence effect at 1.25 g/ha against TRZAS in % ([3]; Triticum aestivum, in vivo)
80%: Post-emergence effect at 5 g/ha against ALOMY in % [4] | Post-emergence effect at 1.25 g/ha against VERPE in % [7]
100%: pest or weed control at 20 g/ha ([4]; 20 g/ha) | pest or weed control at 5 g/ha ([5]; 5 g/ha) | pest or weed control at 20 g/ha ([5]; 20 g/ha) | pest or weed control at 1.25 g/ha ([6]; 1.25 g/ha) | pest or weed control at 5 g/ha ([6]; 5 g/ha) | pest or weed control at 20 g/ha ([6]; 20 g/ha) | pest or weed control at 5 g/ha ([7]; 5 g/ha) | pest or weed control at 20 g/ha ([7]; 20 g/ha) | Post-emergence effect at 1.25 g/ha against VIOTR in % [8] | Post-emergence effect at 5 g/ha against VIOTR in % [8] | pest or weed control at 20 g/ha ([8]; 20 g/ha) | pest or weed control at 20 g/ha ([9]; 20 g/ha) | pest or weed control at 5 g/ha ([10]; 5 g/ha) | pest or weed control at 20 g/ha ([10]; 20 g/ha) | Post-emergence effect at 5 g/ha against ECHCG in % [11] | pest or weed control at 20 g/ha ([11]; 20 g/ha) | Post-emergence effect at 1.25 g/ha against KCHSC in % ([15]; 1.25 g/ha) | Post-emergence effect at 5 g/ha against KCHSC in % ([15]; 5 g/ha) | Post-emergence effect at 20 g/ha against KCHSC in % ([15]; 20 g/ha) | Post-emergence effect at 1.25 g/ha against POLCO in % [12] | pest or weed control at 5 g/ha ([12]; 5 g/ha) | pest or weed control at 20 g/ha ([12]; 20 g/ha) | Post-emergence effect at 1.25 g/ha against DIGSA in % ([16]; 1.25 g/ha) | Post-emergence effect at 5 g/ha against DIGSA in % ([16]; 5 g/ha) | Post-emergence effect at 20 g/ha against DIGSA in % ([16]; 20 g/ha) | Post-emergence effect at 1.25 g/ha against ABUTH in % [13] | pest or weed control at 5 g/ha ([13]; 5 g/ha) | pest or weed control at 20 g/ha ([13]; 20 g/ha) | Post-emergence effect at 20 g/ha against LOLRI in % [14]

Cn1c(C(F)(F)F)cc(=O)n(-c2cc(Oc3ccccc3OCC(=O)OCC3CC3)c(C#N)cc2F)c1=O [I.9-1, Cyclopropylmethyl (2-{2-cyano-4-fluoro-5-[3-methyl-2,6-dioxo-4-(trifluoromethyl)-3,6-dihydropyrimidin-1(2H)-yl]phenoxy}phenoxy)acetate]
80%: Post-emergence effect at 5 g/ha against MATIN in % [9] | pest or weed control at 20 g/ha ([9]; 20 g/ha) | Post-emergence effect at 1.25 g/ha against SETVI in % [10] | Post-emergence effect at 1.25 g/ha against ECHCG in % [11] | pest or weed control at 5 g/ha ([12]; 5 g/ha)
10%: Post-emergence effect at 1.25 g/ha against ZEAMX in % ([1]; Zea mays, in vivo)
20%: Post-emergence effect at 5 g/ha against ZEAMX in % ([1]; Zea mays, in vivo) | Post-emergence effect at 20 g/ha against TRZAS in % ([3]; Triticum aestivum, in vivo)
0%: Post-emergence effect at 1.25 g/ha against ORYSA in % ([2]; Oryza sativa, in vivo) | Post-emergence effect at 5 g/ha against ORYSA in % ([2]; Oryza sativa, in vivo) | Post-emergence effect at 20 g/ha against ORYSA in % ([2]; Oryza sativa, in vivo) | Post-emergence effect at 1.25 g/ha against TRZAS in % ([3]; Triticum aestivum, in vivo)
100%: Post-emergence effect at 5 g/ha against ALOMY in % [4] | pest or weed control at 20 g/ha ([4]; 20 g/ha) | pest or weed control at 5 g/ha ([5]; 5 g/ha) | pest or weed control at 20 g/ha ([5]; 20 g/ha) | pest or weed control at 1.25 g/ha ([6]; 1.25 g/ha) | pest or weed control at 5 g/ha ([6]; 5 g/ha) | pest or weed control at 20 g/ha ([6]; 20 g/ha) | pest or weed control at 5 g/ha ([7]; 5 g/ha) | pest or weed control at 20 g/ha ([7]; 20 g/ha) | Post-emergence effect at 1.25 g/ha against VIOTR in % [8] | Post-emergence effect at 5 g/ha against VIOTR in % [8] | pest or weed control at 20 g/ha ([8]; 20 g/ha) | pest or weed control at 5 g/ha ([10]; 5 g/ha) | pest or weed control at 20 g/ha ([10]; 20 g/ha) | Post-emergence effect at 5 g/ha against ECHCG in % [11] | pest or weed control at 20 g/ha ([11]; 20 g/ha) | pest or weed control at 20 g/ha ([12]; 20 g/ha) | Post-emergence effect at 1.25 g/ha against ABUTH in % [13] | pest or weed control at 5 g/ha ([13]; 5 g/ha) | pest or weed control at 20 g/ha ([13]; 20 g/ha)
